Results on two compounds are retold here after paper PMC3930583 (PLoS Pathogens, 2014).

Assay [1] addresses T1, GST-AvrBsT (Xanthomonas euvesicatoria, UniProt A0ABS8LK00). The assay is classed as biochemical.
Assay [2] addresses T1, GST-AvrBsT. The assay is classed as biochemical. The source holds these as a separate data set.

With `CC(=O)SCCNC(=O)CCNC(=O)[C@H](O)C(C)(C)COP(=O)(O)OP(=O)(O)OC[C@H]1O[C@@H](n2cnc3c(N)ncnc32)[C@H](O)[C@@H]1OP(=O)(O)O` [14C-acetyl-coenzyme A], on GST-AvrBsT [1], the “14C autoacetylation, SDS-PAGE autoradiography” value was “Wild-type GST-AvrBsT activity resulted in auto-acetylation of the enzyme and trans-acetylation of GST-ACIP1”.
For the compound `O=P(O)(O)O[C@H]1[C@H](OP(=O)(O)O)[C@@H](OP(=O)(O)O)[C@H](OP(=O)(O)O)[C@@H](OP(=O)(O)O)[C@H]1OP(=O)(O)O` [inositol hexakisphosphate], the “14C autoacetylation with and without IP6, autoradiography” value at GST-AvrBsT [2] is “Auto-acetylation of GST-AvrBsT was detected in the presence of IP6 but not its absence”.
